Laboratory results reported in patent US5663174A, “Aromatic sulfonamide derivatives, their use as enzyme inhibitors and pharmaceutical compositions containing them” (Pharno-Wedropharm GmbH, priority 1997, dated 1997).
Where two headings read alike, the source gives them in different places.

Molecular target: T1, bovine pancreatic PLA2 (Bos taurus, UniProt P00593)
T1 construct: from tissue; host or cells: bovine pancreas
Assay: Phospholipase A2 (PLA2) activity, enzyme assay
Assay type: biochemical
Method: Phospholipase A2 (PLA2) activity was measured using bovine pancreatic PLA2 as the enzyme and a sonicated dispersion of 1-stearoyl-2-[C^14 ]-arachidonyl-phosphatidylcholine (56 mCi/mmol) as the substrate in the following manner: 60 ng bovine pancreatic PLA2 was mixed and incubated with buffer and inhibitors (100 mM Tris, pH 8; 100 mM CaCl2; 20 mM EDTA, pH 8) at 37° C. for 10 min. to allow interaction between the enzyme and the drugs. The substrate (38 nCi) in buffer and 0.3% cholate was added to initiate the reaction which continued for 20 min. at 37° C. The total reaction volume was 0.1 ml. The reaction was stopped by adding 0.1 ml of an ice cold EtOH/HOAc 98:2 mixture. Released arachidonic acid was separated from the unreacted substrate via thin layer chromatography on silica gel (solvent system CHCl3 /MeOH/H2 O 14:6:1). The radioactivity of the two spots was quantified using a bioscanner.
Inhibitors were dissolved in buffer^13 and tested in duplicate within each experiment, and each inhibitor was tested in at least two experiments. When necessary, inhibitors were dissolved in DMSO^14. The % inhibition at a given concentration was combined for several experiments and the IC50 determined from a semilog plot of % inhibition vs concentration. Under the condition described the rate of hydrolysis was 20-25% of the substrate being hydrolyzed in absence of inhibitors.
^13 0.01 ml inhibitor solution were used in these experiments.
^14 0.005 ml inhibitor solution were used in these experiments (=5 vol %).

[1] = Table 20, from semilog plot of % inhibition vs concentration, substrate 1-stearoyl-2-[C^14]-arachidonyl-phosphatidylcholine, 37° C., pH 8, 20 min
[2] = Table 20, from semilog plot of % inhibition vs concentration, substrate 1-stearoyl-2-[C^14]-arachidonyl-phosphatidylcholine, 37° C., pH 8, 20 min, read-out: IC50

T1 sequence (P00593 23-145): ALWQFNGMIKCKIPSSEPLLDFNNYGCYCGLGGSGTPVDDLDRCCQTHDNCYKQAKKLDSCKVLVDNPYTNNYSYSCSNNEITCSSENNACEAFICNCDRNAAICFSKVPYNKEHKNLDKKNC

| IC50 [2] [µM] | SMILES | other results |
| --- | --- | --- |
| – | O=C([C@H](Cc1ccccc1)NS(=O)(=O)c1ccccc1)N1CCNCC1 [Compound 1, N-benzenesulfonyl-L-phenylalanine piperazineamide] | IC50 [1]: promotion |
| – | C[C@H](NS(=O)(=O)c1ccccc1)C(=O)N1CCNCC1 [Compound 2, N-benzenesulfonyl-L-alanine piperazineamide] | IC50 [1]: promotion |
| 310 | O=C(Nc1ccc(-c2ccccc2)cc1)[C@H](Cc1ccccc1)NS(=O)(=O)c1ccccc1 [Compound 7, N-benzenesulfonyl-L-phenylalanine biphenylamide] | – |
| 520 | O=C(Nc1ccc(-c2ccccc2)cc1)[C@@H]1CCCN1S(=O)(=O)c1ccccc1 [Compound 10, N-benzenesulfonyl-L-proline biphenylamide] | – |
| 570 | O=C(Nc1ccc(-c2ccccc2)cc1)[C@H](Cc1c[nH]c2ccccc12)NS(=O)(=O)c1ccccc1 [Compound 11, N-benzenesulfonyl-L-tryptophane biphenylamide] | – |
| 600 | O=C([C@H](Cc1ccccc1)NS(=O)(=O)c1cccc2c(Cl)cccc12)N1CCNCC1 [Compound 21, N-(5-chloro-1-naphthalenesulfonyl)-L-phenylalanine piperazineamide] | – |
| 310 | CC(C)[C@H](NS(=O)(=O)c1cccc2c(Cl)cccc12)C(=O)N1CCNCC1 [Compound 22, N-(5-chloro-1-naphthalenesulfonyl)-L-valine piperazineamide] | – |
| – | NCCCCCCNC(=O)[C@H](Cc1ccccc1)NS(=O)(=O)c1cccc2c(Cl)cccc12 [Compound 25, N-(5-chloro-1-naphthalenesulfonyl)-L-phenylalanine-1,6-diaminohexaneamide] | IC50 (text example, read-out: IC50 (concentration which would bring about an inhibition of 50%)): 67 µM |
| 275 | O=S(=O)(Nc1ccc(-c2ccccc2)cc1)c1cccc2c(Cl)cccc12 [Compound 30, N-biphenyl-5-chloro-1-naphthalenesulfonamide] | – |
| – | O=C([C@H](Cc1ccccc1)NS(=O)(=O)c1cccc2cnccc12)N1CCNCC1 [Compound 31, N-(5-isoquinolinesulfonyl)-L-phenylalanine piperazineamide] | IC50 [1]: promotion; inhibition at 100 µM: 70.1%; inhibition at 300 µM (at 300 μM): 54% |
| 263 | NCCCCCCNC(=O)[C@H](Cc1ccccc1)NS(=O)(=O)c1cccc2cnccc12 [Compound 35, N-(5-isoquinolinesulfonyl)-L-phenylalanine-1,6-diaminohexaneamide] | – |
| 470 | CC(C)[C@H](NS(=O)(=O)c1cccc2cnccc12)C(=O)Nc1ccc(-c2ccccc2)cc1 [Compound 37, N-(5-isoquinolinesulfonyl)-L-valine biphenylamide] | – |
| 130 | O=C(Nc1ccc(-c2ccccc2)cc1)[C@@H]1CCCN1S(=O)(=O)c1cccc2cnccc12 [Compound 38, N-(5-isoquinolinesulfonyl)-L-proline biphenylamide] | – |
| 435 | O=C(Nc1ccc(-c2ccccc2)cc1)[C@H]1CCCN1S(=O)(=O)c1cccc2cnccc12 [Compound 40, N-(5-isoquinolinesulfonyl)-D-proline biphenylamide] | – |
| – | O=S(=O)(Nc1ccc(-c2ccccc2)cc1)c1cccc2cnccc12 [Compound 41, N-biphenyl-5-isoquinolinesulfonamide] | IC50 [1]: promotion; inhibition at 10 µM (at 10 μM): 31.6%; inhibition at 100 µM: 28.3% |
| 190 | O=S(=O)(Nc1ccccc1)c1cccc2c(Cl)cccc12 [compound 43, reference compound] | – |
